In US20210228500A1, “CELLULAR RETINOID BINDING PROTEIN ANTAGONISTS AND USES THEREOF” (CASE WESTERN RESRVE UNIVERSITY, priority 2018, published 2021):

Key:
[1] = target: T1, CRBP1 (Homo sapiens, UniProt P09455); experiment: Fluorescence binding assay: atROL displacement from holo-CRBP1 (FRET); details: for binding to / interaction with CRBP1: 0-10 μM range
T1 construct: made in house
T1 sequence (P09455 1-135): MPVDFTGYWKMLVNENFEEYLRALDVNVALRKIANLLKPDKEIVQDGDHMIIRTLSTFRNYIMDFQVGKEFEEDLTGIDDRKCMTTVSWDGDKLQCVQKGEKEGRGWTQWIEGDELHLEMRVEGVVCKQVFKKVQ
Method: Human apo-CRBP1 was expressed and purified as described by Silvaroli et al. (J Biol Chem. 2016, 15; 291(16)) without any further modification to the established protocol.
To prepare holo-CRBP1, 3 mg of purified apoprotein was incubated for 15 min on ice with 2 molar excess of atROL (Toronto Research Chemicals) in 10 mM Tris-HCl, pH 8.0, 5% glycerol (v/v). The retinoid was delivered in acetonitrile (<1%, v/v). To remove excess of atROL, the protein solution was diluted 10× with 10 mM Tris-HCl, pH 8.0, centrifuged (36 000 g, 20 min, 4° C.) and loaded onto a 5 mL HiTrap Q HP column. Holo-CRBP1 was eluted from the column in conditions described in CRBP1 purification method. The efficiency of formation of holo-CRBP1 was examined by recording UV/vis spectrum of the repurified protein.
The apparent affinity of nonretinoid ligands was evaluated by monitoring changes in the fluorescence of holo-CRBP1. In the atROL bound form, the protein excited at 285 nm emitted fluorescence at 350 and 480 nm due to FRET between the protein scaffold and the retinoid moiety (FIG. 2A). Replacement of atROL in the binding site by tested ligands leads to disruption of FRET and consequently an increase in the fluorescence intensity at 350 nm with concomitant diminishing signal at 480 nm. All fluorescence measurements were performed using a PerkinElmer Life Sciences LS55 spectrofluorometer. The titrations were performed at 25° C. in 67 mM phosphate-buffered saline buffer, pH 7.4, containing 5% glycerol (v/v) by adding an increasing amount of an examined compound delivered in acetonitrile. […] All fluorescence spectra were corrected for the inner filter effect. The Ki values were calculated by fitting intensities of the protein fluorescence at the maximum emission (350 nm) or the intensity of retinoid fluorescence at 480 nm to the saturation single ligand-binding model. The data fitting and calculations of the Ki values were performed using SigmaPlot 11 software package (Systat Software).

[2] = target: T1, CRBP1; details: read-out: affinity for atROL; cited from earlier work
[3] = target: T2, CRBP4 (Homo sapiens, UniProt Q96R05); details: read-out: affinity for atROL; cited from earlier work
T2 construct: thrombin cut site (residual residues after digestion) (C); 6x histidine tag (C, cleaved yes); made in house; host or cells: E. coli BL21 (DE3) (as for CRBP2)
T2 sequence (Q96R05 1-134): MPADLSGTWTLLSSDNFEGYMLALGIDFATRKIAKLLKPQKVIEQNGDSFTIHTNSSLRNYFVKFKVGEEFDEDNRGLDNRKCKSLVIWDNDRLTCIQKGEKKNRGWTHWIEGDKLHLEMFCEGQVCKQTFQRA

[4] = fluorescence atROL-replacing assay

SMILES: CC1=C(/C=C/C(C)=C/C=C/C(C)=C/CO)C(C)(C)CCC1 [atROL, all-trans-retinol]
- Ki ([1]; reverse experiment: CRBP1 loaded with abn-CBD titrated with atROL, read-out: Ki value for replacing abn-CBD by vitamin A): ~0.034 µM
- Kd [2]: < 0.001 µM
- Kd [3]: 0.2 µM

SMILES: C=C(C)[C@@H]1CCC(C)=CC1c1c(O)cc(C)cc1O (stereo partly drawn) [CBDO, 5-methyl-2-[(6R)-3-methyl-6-prop-1-en-2-ylcyclohex-2-en-1-yl]benzene-1,3-diol]
- further increase of the Ki value ([1]; fluorescence atROL-replacing assay, relative to abn-CBDO): 6.3 fold

SMILES: C=C(C)[C@H]1CC=C(C)CC1 [limonene, reference compound]
- binding to / interaction with CRBP1 [1, 4]: did not observe limonene interacting

SMILES: C=C(C)[C@@H]1CCC(C)=C[C@H]1c1c(C)cc(O)cc1O [abn-CBDO, 5-methyl-4-[(1R,6R)-3-methyl-6-prop-1-en-2-ylcyclohex-2-en-1-yl]benzene-1,3-diol]
- apparent affinity lowered compared with abn-CBD ([1]; fluorescence atROL-replacing assay, relative to abn-CBD): 4.3 times

SMILES: C=C(C)[C@@H]1CCC(C)=C[C@H]1c1c(OC)cc(C)cc1OC [0-1918, 1,3-dimethoxy-5-methyl-2-[(1R,6R)-3-methyl-6-prop-1-en-2-ylcyclohex-2-en-1-yl]benzene]
- binding to / interaction with CRBP1 [1, 4]: abolished the meaningful binding
